Measurements published in patent publication US10172837B2, “Insulin sensitisers and methods of treatment” (NAIA Metabolic, Inc., priority 2007, dated 2019).

How the values were obtained:
Format in all cases: in vivo, Mus Musculus
[1] = tested on: Diet-Induced Obese (DIO) Mice; assay: ipGTT (glucose tolerance) in diet-induced obese mice
[2] = Body weight of treated db/db mice; conditions: Day 0, Day 8 or Day 18, db/db mice
Protocol: Male C57Bl/6J db/db mice were obtained at 10 weeks of age from Animal Resources Centre ([…], Western Australia). Animals were individually housed and allowed free movement and ad libitum access to water and food. Animals were maintained on a 12 hour light (6 am-6 pm) and 12 hour dark (6 pm-6 am) cycle. Animals were monitored daily. Body weight, food and water intake were recorded 3 times a week. Mice were fed a standard chow diet, and used after a two week acclimatisation period.

[3] = Body weight of treated diet-induced obese mice; conditions: Day 0 or Day 13, DIO mice
Protocol: Male C57Bl/6J mice were obtained at 8 weeks of age from Animal Resources Centre (Canning Vale, Western Australia). Animals were individually housed and allowed free movement and ad libitum access to water and food. Animals were maintained on a 12 hour light (6 am-6 pm) and 12 hour dark (6 pm-6 am) cycle. Animals were monitored daily. Body weight, food and water intake were recorded 3 times a week.

[4] = tested on: Diet-Induced Obese (DIO) Mice; assay: Fasting plasma glucose in diet-induced obese mice
db/db mice = assay: Fasting plasma glucose in db/db mice; conditions: for FPG Day 0: Methazolamide 20 mg/kg group
From the text: The db/db mouse model comprises mice with a homozygous mutation of the leptin receptor gene that ablates leptin signalling in the hypothalamus and elsewhere. The db/db mouse model is commonly used to study the genetic and physiological mechanisms of obesity and type II diabetes. […] Leptin acts through the leptin receptor to control whole-body energy homeostasis by regulating both appetite and energy expenditure. Loss of function of the leptin receptor gene results in hyperphagia and slower metabolism, leading to obesity and eventually diabetes. […] Dosing solutions of the test articles: Methazolamide, Metformin and Methazolamide/Metformin were prepared fresh on each dosing day and stored at room temperature, protected from light. The compound was formulated in sterile vehicle: […] Stock solutions were prepared by dissolving the compound in NMP:PEG300 (1:2, v/v). Saline was added to the stock solution prior to administration of the compound. The solutions were mixed by vortexing immediately prior to dosing to ensure a homogeneous suspension of the compound. Male C57Bl/6J db/db mice were obtained at 10 weeks of age from Animal Resources Centre ([…], Western Australia). Animals were individually housed and allowed free movement and ad libitum access to water and food. Animals were maintained on a 12 hour light (6 am-6 pm) and 12 hour dark (6 pm-6 am) cycle. Animals were monitored daily. Body weight, food and water intake were recorded 3 times a week. Mice were fed a standard chow diet, and used after a two week acclimatisation period. […] The fasting plasma glucose levels of the animals was tested prior to commencement of the study and then every 3-4 days during dosing. The animals were fasted for a period of 4 hours after dosing and prior to the taking of a blood sample via a tail nick. Blood glucose levels were monitored using commercially available glucometers (Accuchek Advantage, Roche) based on the electric current generated when a blood drop is spotted on a test strip resulting in conversion of the glucose present in the sample to gluconolactone by the glucose dehydrogenase enzyme, in the presence of the coenzyme (PQQ).

[5] = Methazolamide 10 mg/kg oral gavage (Table 5-2)
[6] = Methazolamide 10 mg/kg oral gavage (Table 8-2)
[7] = Methazolamide 20 mg/kg group, before dosing
[8] = Methazolamide 20 mg/kg oral gavage
[9] = Methazolamide 50 mg/kg group, before dosing
[10] = Methazolamide 50 mg/kg oral gavage
[11] = Methazolamide 100 mg/kg group, before dosing
[12] = Methazolamide 100 mg/kg oral gavage
[13] = Methazolamide 10 mg/kg oral gavage (Table 5-1)
[14] = Methazolamide 10 mg/kg oral gavage (Table 8-1)

## CC(=O)/N=c1\sc(S(N)(=O)=O)nn1C [Methazolamide, 5-acetylimino-4-methyl-Δ^2-1,3,4-thiadiazoline-2-sulfonamide]
[1]
  effect on glucose tolerance of diet-induced obese mice: increased the glucose tolerance
[1]; Methazolamide 10 mg/kg group, before dosing (Table 5-2)
  AUC Day −1: 1038 ± 129 mM·min
[1]; Methazolamide 10 mg/kg group, before dosing (Table 8-2)
  AUC Day −1: 1190 ± 62 mM·min
[1]; [5]
  AUC Day 13: 901 ± 139 mM·min
  Delta AUC Treatment Day 13 vs Day −1: −13%^
  Delta AUC Treatment vs Vehicle Day 13: −8%
[1]; [6]
  AUC Day 13: 1131 ± 95 mM·min
  AUC Day 13 Treat vs Veh: −6%
  Delta AUC Day 13 vs Day −1: −5%
[1]; [7]
  AUC Day −1: 1070 ± 77 mM·min
[1]; [8]
  AUC Day 13: 619 ± 106 mM·min
  Delta AUC Treatment Day 13 vs Day −1: −42%^1
  Delta AUC Treatment vs Vehicle Day 13: −37%^1
[1]; [9]
  AUC Day −1: 1073 ± 112 mM·min
[1]; [10]
  AUC Day 13: 710 ± 87 mM·min
  Delta AUC Treatment Day 13 vs Day −1: −34%^1
  Delta AUC Treatment vs Vehicle Day 13: −27%^1
[1]; [11]
  AUC Day −1: 1080 ± 59 mM·min
[1]; [12]
  AUC Day 13: 691 ± 60 mM·min
  Delta AUC Treatment Day 13 vs Day −1: −36%^2
  Delta AUC Treatment vs Vehicle Day 13: −29%^1
[2]
  difference in body weight vs Vehicle group: no difference in body weight
[3]
  difference in body weight between treated groups: no difference in body weight
[4]
  effect on fasting plasma glucose levels of diet-induced obese mice: reduced the fasting plasma glucose levels
[4]; Methazolamide 10 mg/kg group, before dosing (Table 5-1)
  FPG Day −1: 6.92 ± 0.55 mM
[4]; Methazolamide 10 mg/kg group, before dosing (Table 8-1)
  FPG Day −1: 6.1 ± 0.5 mM
[4]; [13]
  Delta FPG Treatment Day 13 vs Day −1: 12%
  FPG Day 13: 7.75 ± 0.43 mM
  FPG Treatment vs Vehicle Day 13: 1%
[4]; [14]
  Delta FPG Treatment Day 13 vs Day −1: 8%
  Delta FPG Treatment vs Vehicle Day 13: −12%
  FPG Day 13: 6.6 ± 0.4 mM
[4]; [7]
  FPG Day −1: 7.28 ± 0.47 mM
[4]; [8]
  Delta FPG Treatment Day 13 vs Day −1: −5%
  FPG Day 13: 6.90 ± 0.24 mM
  FPG Treatment vs Vehicle Day 13: −10%^
[4]; [9]
  FPG Day −1: 7.20 ± 0.71 mM
[4]; [10]
  Delta FPG Treatment Day 13 vs Day −1: −13%
  FPG Day 13: 6.28 ± 0.31 mM
  FPG Treatment vs Vehicle Day 13: −18%^1
[4]; [11]
  FPG Day −1: 7.63 ± 0.55 mM
[4]; [12]
  Delta FPG Treatment Day 13 vs Day −1: −21%
  FPG Day 13: 6.05 ± 0.15 mM
  FPG Treatment vs Vehicle Day 13: −21%^2
db/db mice; before dosing (Table 9-1)
  FPG Day 0: 23.93 ± 1.6 mM
db/db mice; before dosing (Table 9-2)
  FPG Day 0: 23.93 ± 1.6 mM
db/db mice; [8]
  Delta FPG Treatment Day 8 vs Day 0: −32%^1
  Delta FPG Treatment Day 18 vs Day 0: −29%^1
  FPG Day 8: 16.30 ± 1.8 mM
  FPG Day 18: 17.00 ± 2.5 mM
  FPG Treatment vs Vehicle Day 8: −30%^4
  FPG Treatment vs Vehicle Day 18: −38%^3
db/db mice; after 8 days of treatment
  effect on fasting plasma glucose levels of db/db mice: reduced the fasting plasma glucose levels
db/db mice; after 18 days of treatment
  effect on fasting plasma glucose levels of db/db mice: reduced the fasting plasma glucose levels
